From patent publication US7932387B2, “Crystalline forms of rosuvastatin calcium salt” (BASF SE, priority 2005, dated 2011)
Structures can show the parent of a compound that is named as a salt.

How the values were obtained:
[1] = Solubility in water and in physiological liquids (comparison of solid forms); assay type: physicochemical; details: compared with form A; qualitative statement
[2] = Chemical and physical stability (comparison of solid forms); assay type: physicochemical; details: compared with the amorphous form; qualitative statement

For `CC(C)c1nc(N(C)S(C)(=O)=O)nc(-c2ccc(F)cc2)c1/C=C/[C@@H](O)C[C@@H](O)CC(=O)O` [Form B, bis[(E)-7-[4-(4-fluorophenyl)-6-isopropyl-2-[methyl(methylsulfonyl)amino]pyrimidin-5-yl](3R,5S)-3,5-dihydroxyhept-6-enoic acid] calcium salt], the “solubility in water and in physiological liquids” value [1] was “better soluble in water and in physiological liquids than form A” and the “chemical and physical stability” value [2] was “chemically and physically more stable than the amorphous form”.
